For 10 molecules, TGI and GI50 results are on record in PubChem BioAssay (NCI).

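Interpolation was linear, between the two tested concentrations surrounding the appropriate level; five concentrations were tested over 48 hours in 96-well plates. GI50 = concentration required for 50% inhibition of growth. TGI denotes the concentration required for complete inhibition of growth.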

Some test systems named below: RPMI-8226 leukemia; M14 melanoma; BT-549 breast; CCRF-CEM leukemia; RXF 393 renal; PC-3 prostate; A549 NSCLC; ACHN renal; HCC-2998 colon; K-562 leukemia.
Experiment in all cases: growth of human tumour cells (NCI), 48 h

Consider `CN1CCC(n2[nH]c(-c3ccccc3)c(Cc3ccccc3)c2=O)CC1`, for which the TGI with RPMI-8226 leukemia, with M14 melanoma, in the experiment on BT-549 breast, with CCRF-CEM leukemia, in the experiment on RXF 393 renal and with PC-3 prostate was over 100 µM each time. Also, the TGI in the experiment on A549 NSCLC, in the experiment with ACHN renal, in the experiment on HCC-2998 colon and with K-562 leukemia was over 100 µM throughout.

On to `Cc1ccc(F)cc1NC(=O)c1cc(Cl)ccc1Nc1ccccc1`, for which the GI50 in the experiment on RPMI-8226 leukemia was 51.2 µM; with BT-549 breast it was over 100 µM; in the experiment with CCRF-CEM leukemia it was 20.2 µM; in the experiment on RXF 393 renal, 74.7 µM; with PC-3 prostate, over 100 µM; in the experiment on A549 NSCLC, over 100 µM. Also, the GI50 is over 100 µM in the experiment on ACHN renal, over 100 µM in the experiment on HCC-2998 colon and 67.6 µM in the experiment on K-562 leukemia. Also, the TGI in the experiment on RPMI-8226 leukemia, in the experiment on BT-549 breast, in the experiment with CCRF-CEM leukemia, in the experiment with RXF 393 renal, with PC-3 prostate and with A549 NSCLC was over 100 µM in each case. Also, the TGI in the experiment with ACHN renal, in the experiment on HCC-2998 colon and in the experiment on K-562 leukemia was over 100 µM each time.

Regarding `O=[N+]([O-])c1cccc(-c2cc(-c3cc(Br)ccc3O)[nH]n2)c1`, the GI50 was 1.47 µM in the experiment with RPMI-8226 leukemia; 2.08 µM in the experiment on M14 melanoma; 1.26 µM with BT-549 breast; 3.94 µM with CCRF-CEM leukemia; 3.48 µM with PC-3 prostate; 2.42 µM with A549 NSCLC. The GI50 with ACHN renal was 3.23 µM; with HCC-2998 colon it was 2.96 µM; with K-562 leukemia it was 1.66 µM. For the same molecule, the TGI was determined as 4.75 µM in the experiment with RPMI-8226 leukemia; 5.03 µM in the experiment with M14 melanoma; 4.61 µM with BT-549 breast; 19.9 µM with CCRF-CEM leukemia; 7.7 µM in the experiment with PC-3 prostate; 6.68 µM in the experiment with A549 NSCLC. The values for the TGI in the experiment with HCC-2998 colon and in the experiment with K-562 leukemia were 12.1 µM and 4.57 µM, respectively.

Regarding `COc1ccc(C(=O)CC(c2ccc(OC)c(OC)c2)c2c(O)c3ccccc3oc2=O)cc1OC` (stereo unspecified), the TGI with RPMI-8226 leukemia, with M14 melanoma, in the experiment with BT-549 breast, with CCRF-CEM leukemia, in the experiment with RXF 393 renal and with PC-3 prostate was over 100 µM in each case. The TGI in the experiment on A549 NSCLC, in the experiment with ACHN renal, in the experiment with HCC-2998 colon and in the experiment on K-562 leukemia was over 100 µM each time.

Regarding `COc1ccc(-n2c3c(c4c(CN(C)C)c(O)c(C)cc42)CCc2ccccc2C3=O)cc1`, the GI50 in the experiment with RPMI-8226 leukemia was 15.5 µM; in the experiment on M14 melanoma it was 26.9 µM; in the experiment with BT-549 breast, 14.4 µM; in the experiment on RXF 393 renal, 16.1 µM; in the experiment with PC-3 prostate, 11.7 µM; in the experiment with A549 NSCLC, 55.6 µM. The figures for the GI50 in the experiment with ACHN renal, in the experiment with HCC-2998 colon and with K-562 leukemia were 47 µM, 23.4 µM and 18.7 µM, respectively. In addition, the TGI is 47 µM in the experiment on RPMI-8226 leukemia; 97 µM in the experiment with M14 melanoma; over 100 µM in the experiment on BT-549 breast; 75.6 µM in the experiment on RXF 393 renal; 50.3 µM in the experiment on PC-3 prostate; over 100 µM in the experiment on A549 NSCLC. Further, the TGI is over 100 µM in the experiment with ACHN renal, 67.8 µM in the experiment on HCC-2998 colon and 44.4 µM in the experiment on K-562 leukemia.

As for `Cc1ccc(/C(=C/C=C(C#N)C#N)Sc2ccccn2)cc1`, the GI50 is 2.69 µM with M14 melanoma; 2.59 µM in the experiment on BT-549 breast; 0.168 µM with CCRF-CEM leukemia; 15.6 µM in the experiment on RXF 393 renal; 4.65 µM in the experiment with PC-3 prostate; 12.3 µM with A549 NSCLC. In addition, the GI50 with ACHN renal was 1.83 µM; in the experiment with HCC-2998 colon it was 3.85 µM; with K-562 leukemia it was 1.55 µM. Moreover, the TGI is 6.29 µM with M14 melanoma; 6.85 µM with BT-549 breast; 0.575 µM in the experiment with CCRF-CEM leukemia; over 28.1 µM in the experiment on RXF 393 renal; over 20.5 µM in the experiment on PC-3 prostate; 31.8 µM with A549 NSCLC. Besides, the figures for the TGI in the experiment with ACHN renal, in the experiment on HCC-2998 colon and with K-562 leukemia were 3.52 µM, 8.84 µM and 10.8 µM, respectively.

Consider `O=C(NC1(C(=O)O)CC1c1ccccc1)c1ccccc1` (stereo unspecified), for which the TGI with RPMI-8226 leukemia, in the experiment with M14 melanoma, in the experiment on BT-549 breast, with RXF 393 renal, in the experiment on PC-3 prostate and with A549 NSCLC was over 100 µM in each case. Also, the TGI in the experiment on ACHN renal, in the experiment on HCC-2998 colon and with K-562 leukemia was over 100 µM in each case.

`NC1=NC(c2ccc(F)cc2)C2=C(N1)c1ccc3ccccc3c1OCC2` (stereo unspecified): the GI50 is over 100 µM in the experiment with M14 melanoma; 33.6 µM in the experiment on BT-549 breast; 18.7 µM with RXF 393 renal; over 100 µM with PC-3 prostate; 18.7 µM with A549 NSCLC; 29.7 µM in the experiment on ACHN renal. Also, the GI50 in the experiment with K-562 leukemia was 3.1 µM. The TGI in the experiment with M14 melanoma, in the experiment with BT-549 breast, in the experiment with RXF 393 renal, in the experiment on PC-3 prostate, in the experiment with A549 NSCLC and with ACHN renal was over 100 µM throughout. The TGI with K-562 leukemia was over 100 µM.

Turning to `CN(C)S(=O)(=O)c1ccc(Nc2ccc(O)c3c2C(=O)c2c([N+](=O)[O-])ccc(O)c2C3=O)cc1`, the TGI was over 100 µM with RPMI-8226 leukemia; over 100 µM with M14 melanoma; over 100 µM in the experiment with BT-549 breast; 44.9 µM in the experiment on CCRF-CEM leukemia; over 100 µM in the experiment with RXF 393 renal; over 100 µM in the experiment on PC-3 prostate. The TGI in the experiment with A549 NSCLC, in the experiment on ACHN renal and in the experiment with K-562 leukemia was over 100 µM in each case.

With `COc1cc2c(cc1OCCCN1CCN(c3cc(=O)oc4c(C)c(OC)ccc34)CC1)N=C[C@@H]1CCCN1C2=O`, the GI50 in the experiment with RPMI-8226 leukemia is 0.214 µM; in the experiment on M14 melanoma, 1.24 µM; in the experiment with BT-549 breast, 1.21 µM; in the experiment on CCRF-CEM leukemia it was 0.122 µM; in the experiment with RXF 393 renal, 0.424 µM; in the experiment on PC-3 prostate, 1.19 µM. Also, the results for the GI50 with ACHN renal, in the experiment on HCC-2998 colon and in the experiment with K-562 leukemia were 1.86 µM, 1.44 µM and 0.456 µM, respectively. In addition, the TGI turned out to be 1.32 µM with RPMI-8226 leukemia; 2.69 µM with M14 melanoma; 6.96 µM in the experiment on BT-549 breast; 1.36 µM with CCRF-CEM leukemia; 1.02 µM in the experiment with RXF 393 renal; 12.8 µM with PC-3 prostate. Besides, the TGI in the experiment on ACHN renal is 4.55 µM; with HCC-2998 colon, 2.89 µM; with K-562 leukemia it was over 20.9 µM.
